Experimental data from patent publication US20080090297A1, “Methods for determining the metal bioavailability of metal sources” (Novus International Inc., priority 2006, published 2008).

Key:
[1] = system: metallothionein (MT) mRNA; test: Induction of metallothionein (MT) mRNA by zinc in chicken tissues, QRT-PCR; format: in vivo; settings: high zinc diet (34 ppm basal + 64 ppm zinc from Zn(HMTBA)2) vs low zinc diet (34 ppm); day 29; normalized to 18S rRNA; one bird per group
Description: Zinc treatment and sample collection. Upon hatching, chicks were placed on a moderately Zn-deficient starter diet. On day 13, they were switched to two different test diets: some were fed a low zinc diet with no zinc supplements (the diet contained 34 ppm zinc in the basal feedstuffs) and the rest were fed a high zinc diet comprising 34 ppm zinc in the feedstuffs and 64 ppm zinc from Zn(HMTBA)2 for a total of 98 ppm zinc. On day 29, a chicken from each group was sacrificed and the following tissues were collected: jejunum (small intestine), jejunum mucosal scrapings, liver, and kidney. The lumen of a 2-3 inch long jejunum section was rinsed with 3-4 ml of cold saline. The jejunum was cut open lengthwise and placed mucosa-side up on a clean cutting board. One piece of jejunum, no greater than 0.5 cm in any direction, was placed into a microcentrifuge tube containing 0.9 ml of RNAlater solution, and stored according to the manufacturer's instructions (Ambion, Austin Tex.). The jejunum section's remaining mucosal surface was scraped with a glass slide. Cell scrapings were collected and placed into 0.9 ml RNAlater. The other tissues were stored in RNAlater. RNA was isolated using the High Pure RNATissue Prep Kit (Roche Applied Science, Cat No 12033674001) following the manufacturer's instructions. The concentration of RNA was determined using a spectrophotometer, and the concentration of RNA was adjusted to a maximum of 0.5 mg/ml by dilution with elution buffer. The RNA samples were either used immediately, or frozen on dry ice and stored at −80° C. until use.
Reverse Transcriptase and Quantitative PCR. First strand cDNA synthesis was performed using the Transcriptor Reverse Transcriptase® (Roche Applied Science, Indianapolis, Ind., catalog #04379012001), using the instructions supplied by the manufacturer. Each first-strand synthesis reaction contained 0.5 μg of total RNA. The reverse transcription was performed in a thermocycler using the following program: a brief, 90 sec denaturation step at 65° C.; annealing for 30 sec at 40° C.; 30 min cDNA synthesis at 55° C.; and enzyme inactivation by 5 min denaturation at 85° C. The reaction product was concentrated by ethanol precipitation, rinsed and dried. The sample was then resuspended in 400 μl of nuclease-free water and A260/A280 was measured to ensure that cDNA concentration in each sample would fall within the range of concentration usable by the QRT-PCR assay.
MT mRNA and 18S rRNA levels were measured by QRT-PCR on a Roche LightCycler®, using the LightCycler® FastStart DNA Master HybProbe Kit (Roche Molecular Systems, Inc, Alameda, Calif., catalog #300324) using 0.5 μM of each primer and 0.2 μM of each TaqMan probe, as shown in Table 1. […]

[2] = system: metallothionein (MT) mRNA; test: Time course of zinc-induced expression of metallothionein in chicken jejunum, QRT-PCR; format: in vivo
Description: A total of 54 chickens were fed a low zinc/low copper milo starter diet for 10 days. On day 11 (t=Day 0), the birds were split into two groups: 18 were fed a corn-soy diet supplemented with 25 ppm copper oxide and no zinc (“Cu”) and 36 were fed a corn-soy diet supplemented with 25 ppm copper oxide and 70 ppm zinc from Zn(HMTBA)2 (“Cu+Zn(HMTBA)2”). On days 13 (t=Day 2), 16 (t=Day 5) and 19 (t=Day 8), three “Cu” and three “Cu+Zn(HMTBA)2” birds per day were weighed and sacrificed. The mid-jejunum was collected from each bird. The lumen was rinsed with 3-4 ml of cold saline, and each sample was divided into two pieces, with each piece being no larger than 0.5 cm in any direction. The two pieces from each bird were placed in separate microcentrifuge tubes containing 0.9 ml of RNAlater solution.
RNA was isolated (RNA from the two pieces from each bird were pooled), and 18S-normalized MT mRNA expression levels were measured by QRT-PCR as described in Example 1. The data are expressed as MT mRNA expression relative to the low zinc jejunum reference sample from Example 1.

[3] = system: metallothionein (MT) mRNA; test: Bioavailability of different zinc compositions in chickens, MT mRNA in jejunum mucosal scrapings by QRT-PCR; format: in vivo, chicken; settings: 70 ppm zinc in corn-soy diet for 2 days (day 21 to 23); six birds per treatment; 18S-normalized; P≦0.05
Procedure: Chickens were fed a low zinc pre-feed diet for 20 days. On day 21, they were switched to a corn-soy diet supplemented with one of the following: 1) unsupplemented for zinc (control); 2) 70 ppm zinc from ZnOxide; 3) 70 ppm zinc from a zinc amino acid complex (Zn AAC); 4) 70 ppm zinc from Zn(HMTBA)2. On day 23, six birds from each treatment were weighed, sacrificed, and jejunum samples were collected. The lumen was rinsed with 3-4 ml of cold saline, the jejunum was cut open lengthwise, and the mucosal surface was scraped with a glass slide. Cell scrapings were collected into 0.9 ml of RNAlater. RNA was isolated as described in Example 1. QRT-PCR was performed as described in Example 1, and 18S-normalized MT mRNA expression was determined.

Structure (SMILES): CSCCC(O)C(=O)[O-].CSCCC(O)C(=O)[O-].[Zn+2] (centres unmarked) [Zn(HMTBA)2]
- fold induction of MT mRNA in jejunum [1]: 34 fold
- fold induction of MT mRNA in jejunum mucosal scrapings [1]: 125 fold
- fold induction of MT mRNA in kidney [1]: 9 fold
- fold induction of MT mRNA in liver [1]: 19 fold
- MT mRNA expression in jejunum, overall effect of treatment ([2]; 70 ppm zinc from Zn(HMTBA)2 + 25 ppm copper oxide vs 25 ppm copper oxide only, days 2, 5, 8, P=0.0077): increased MT expression
- MT mRNA expression in jejunum, difference between treatments by day ([2]; Cu+Zn(HMTBA)2 vs Cu diet, three birds per treatment per day, days 2, 5 and 8): Significant differences in MT expression are seen between treatments on days 5 and 8
- levels of MT mRNA induced in jejunum mucosal scrapings [3]: significantly greater than those induced by ZnOxide or the Zn AAC

Structure (SMILES): [O-2].[Zn+2] [ZnOxide, zinc oxide, reference compound]
- levels of MT mRNA induced in jejunum mucosal scrapings [3]: not significantly greater than MT expression in the unsupplemented birds
